Tested on: CD4 T cells
Test: CD4 T cell activation and differentiation in vitro with Dkk-1 or Wnt3a
Assay type: cell-based, mice
Conditions: naïve CD4 T cells, Wnt3a 20% v/v, 96 hours
Text: FIG. 5, comprising FIG. 5A through FIG. 5E, depicts results of experiments showing Dkk-1 induces TH2 cell polarization. FIG. 5A depicts lungs harvested for immunohistochemistry of CD3 (dark brown), CD41 (blue) and isotype control antibodies of lungs from Dkk-1^d/d mice and their wildtype littermate controls challenged with HDM extract allergen. Orange arrowheads in the images indicate co-localized CD3 T cells with CD41^+ platelets. FIG. 5B depicts ELISA analysis of Dkk-1 from plasma samples from Dkk-1^d/d mice (n=5) collected 24 hours after challenge with 50 μg HDM. FIG. 5C depicts ELISA analysis of splenic CD4 T cells from 6-8 week-old C57BL/6 mice were activated with anti-CD3 and anti-CD28 antibodies (Act) with or without Dkk-1 (30 ng/ml unless indicated) for 4 days. FIG. 5D depicts flow cytometry analysis of splenic CD4 T cells from 6-8 week-old C57BL/6 mice were activated with anti-CD3 and anti-CD28 antibodies (Act) with or without Dkk-1 (30 ng/ml unless indicated) for 4 days. FIG. 5E depicts ELISA analysis of naïve CD4 T cells stimulated anti-CD3 and anti-CD28 antibodies for 96 hr with or without Dkk-1.
FIG. 6, comprising FIG. 6A through FIG. 6E, depicts results of experiments showing Dkk-1 induces TH2 cytokines in various T cell differentiation conditions. FIG. 6A depicts flow cytometry and ELISA analysis of naïve CD4 T cells were stimulated under TH1 polarization conditions for 96 hours with or without Dkk-1. FIG. 6B depicts flow cytometry and ELISA analysis of naïve CD4 T cells were stimulated under TH2 polarization conditions for 96 hours with or without Dkk-1. FIG. 6C depicts flow cytometry analysis of Foxp3, IL-17A, and IL-10 expression in splenic naïve CD4 T cells isolated and differentiated into iTreg for 5 days with 100 U/ml IL-2 and 1.5 ng/ml TGF-β with or without 30 ng/ml and 3 ng/ml of Dkk-1 treated during the culture. FIG. 6D depicts Gata-3 expression levels of splenic naïve CD4 T cells from 8 week-old C57BL/6 mice treated with Dkk-1 with varying doses of Dkk-1 (50, 30, 7.5 ng/ml) or Wnt3a (20% v/v) for 96 hours in the presence of anti-CD3 and anti-CD28 antibody stimulation. FIG. 6E depicts qPCR results of Tcf7 and Lef1 mRNA harvested from splenic naïve CD4 T cells from 8 week-old C57BL/6 mice stimulated with or without Dkk-1 (30 ng/ml) for 96 hours. All results were statistically non-significant. All experiments are a representative of two to three independent experiments. Student's t-test or one way-ANOVA analysis with Bonferonni's post-hoc test were performed. Small horizontal lines and error bars indicate the mean (±s.e.m.). ***, p<0.0001, **, p<0.005, *, p<0.05.
FIG. 8, comprising FIG. 8A through FIG. 8G, depicts results of experiments showing Dkk-1 induces IL-10 in CD4 T cells via SGK-1 and p38 MAPK. FIG. 8A depicts ELISA analysis of naïve CD4 T cell differentiated into TH2 cells with or without Dkk-1 (30 ng/ml), SGK-1 inhibitor (2 μM) or p38 inhibitor (10 μM) for 96 hours. FIG. 8B depicts flow cytometry analysis of human naïve CD4 T cells (CD4^+CD25^−CD45RA^+) transduced with SGK-1 shRNA and selected with puromycin (0.5 μg/ml) for 48 hours. The selected cells were stimulated with anti-CD3 mAb (OKT3) and anti-CD28 mAb with or without Dkk-1 for 96 hr. For the last 5 hr of culture, stimulation cocktail (PMA/Ionomycin/Brefeldin A/Monensin) was added. FIG. 8C depicts intracellular staining with antibodies recognizing phospho-S6 kinase of splenic CD4^+CD25^− cells from 6 week-old C57BL/6 mice were isolated and activated with anti-CD3 and anti-CD28 mAb (2 μg/ml) with or without Dkk-1 (25 ng/ml) for indicated time points. FIG. 8D depicts intracellular staining with antibodies recognizing phospho-4E-BP1 of splenic CD4^+CD25^− cells from 6 week-old C57BL/6 mice were isolated and activated with anti-CD3 and anti-CD28 mAb (2 μg/ml) with or without Dkk-1 (25 ng/ml) for indicated time points. […]

Wnt3a
Gata-3 expression: induced
